The record followed here is patent publication US11759462B2, “Spirocyclic compounds as tryptophan hydroxylase inhibitors” (priority 2013, dated 2023).

The target in the first assay is T1, Recombinant human TPH1 (MBP tagged) (Homo sapiens, UniProt P17752).
T1 construct: cloning full length human TPH1 cDNA in to a bacterial pMAL-c5E expression vector; made in house; host or cells: E. coli BL21 (DE3)
T1 sequence (P17752 1-444): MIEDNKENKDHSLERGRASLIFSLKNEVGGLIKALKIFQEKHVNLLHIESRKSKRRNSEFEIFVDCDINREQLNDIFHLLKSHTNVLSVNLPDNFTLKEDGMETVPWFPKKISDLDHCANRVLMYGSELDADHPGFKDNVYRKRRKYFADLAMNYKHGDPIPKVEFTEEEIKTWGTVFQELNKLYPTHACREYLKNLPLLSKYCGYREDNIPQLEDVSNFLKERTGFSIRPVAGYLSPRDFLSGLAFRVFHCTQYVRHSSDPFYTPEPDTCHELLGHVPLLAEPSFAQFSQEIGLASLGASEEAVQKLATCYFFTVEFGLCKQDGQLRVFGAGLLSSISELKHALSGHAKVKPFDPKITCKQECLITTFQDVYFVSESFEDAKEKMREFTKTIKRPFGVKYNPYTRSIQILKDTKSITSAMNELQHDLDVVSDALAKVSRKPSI
In words: TPH1 in vitro inhibition assay (kinetic fluorescence). The conditions noted are these: TPH1 Range (TPH1 inhibition IC50). The assay is classed as biochemical. The essentials:
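Final mix: 15 nM MBP-TPH1, 30 μM Trp, 36 μM 6-methyltetrahydropterin, 25 μM ferrous ammonium sulfate, 50 mM MES pH 7.1, 1% DMSO, room temperature.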
As a reminder, the IC50 is the concentration that gives 50% inhibition. On to `Cn1ncc2cc(-c3ccc([C@@H](Oc4cc(N5CCC6(CC5)CN[C@H](C(=O)O)C6)nc(N)n4)C(F)(F)F)cc3)ccc21` [Example 55b, (S)-8-(2-amino-6-((R)-2,2,2-trifluoro-1-(4-(1-methyl-1H-indazol-5-yl)phenyl)ethoxy)pyrimidin-4-yl)-2,8-diazaspiro[4.5]decane-3-carboxylic acid], for which the concentration for half-maximal inhibition (IC50) is less than 50 nM. In the case of `Cc1nn(C)c2cc(-c3ccc([C@@H](Oc4cc(N5CCC6(CC5)CN[C@H](C(=O)O)C6)nc(N)n4)C(F)(F)F)cc3)ccc12` [Example 55ba, (S)-8-(2-amino-6-((R)-1-(4-(1,3-dimethyl-1H-indazol-6-yl)phenyl)-2,2,2-trifluoroethoxy)pyrimidin-4-yl)-2,8-diazaspiro[4.5]decane-3-carboxylic acid], the IC50 is less than 50 nM. Still for that read-out and setting: to `CN1CCc2cc(-c3ccc([C@@H](Oc4cc(N5CCC6(CC5)CN[C@H](C(=O)O)C6)nc(N)n4)C(F)(F)F)cc3)ccc2C1=O` [Example 55bj, (S)-8-(2-amino-6-((R)-2,2,2-trifluoro-1-(4-(2-methyl-1-oxo-1,2,3,4-tetrahydroisoquinolin-6-yl)phenyl)ethoxy)pyrimidin-4-yl)-2,8-diazaspiro[4.5]decane-3-carboxylic acid] belongs less than 50 nM.

Staying with this assay, now noted: read-out: TPH1 Range (TPH1 inhibition IC50).
With `Nc1nc(O[C@H](c2ccc(-c3cccc(C(F)(F)F)c3)cc2)C(F)(F)F)cc(N2CCC3(CC2)CN[C@H](C(=O)O)C3)n1` [Example 55as, (S)-8-(2-amino-6-((R)-2,2,2-trifluoro-1-(3′-(trifluoromethyl)-[1,1′-biphenyl]-4-yl)ethoxy)pyrimidin-4-yl)-2,8-diazaspiro[4.5]decane-3-carboxylic acid], the IC50 was in the range of 50 to 300 nM.

`Nc1nc(O[C@H](c2ccc(-c3cccc(OC(F)(F)F)c3)cc2)C(F)(F)F)cc(N2CCC3(CC2)CN[C@H](C(=O)O)C3)n1` [Example 55at, (S)-8-(2-amino-6-((R)-2,2,2-trifluoro-1-(3′-(trifluoromethoxy)-[1,1′-biphenyl]-4-yl)ethoxy)pyrimidin-4-yl)-2,8-diazaspiro[4.5]decane-3-carboxylic acid]: the IC50 lay within 50 to 300 nM. On the same count and under the same terms, to `CCOc1cccc(-c2ccc([C@@H](Oc3cc(N4CCC5(CC4)CN[C@H](C(=O)O)C5)nc(N)n3)C(F)(F)F)cc2)c1` [Example 55au, (S)-8-(2-amino-6-((R)-1-(3′-ethoxy-[1,1′-biphenyl]-4-yl)-2,2,2-trifluoroethoxy)pyrimidin-4-yl)-2,8-diazaspiro[4.5]decane-3-carboxylic acid] belongs 50 to 300 nM; to `CC(C)Oc1cccc(-c2ccc([C@@H](Oc3cc(N4CCC5(CC4)CN[C@H](C(=O)O)C5)nc(N)n3)C(F)(F)F)cc2)c1` [Example 55av, (S)-8-(2-amino-6-((R)-2,2,2-trifluoro-1-(3′-isopropoxy-[1,1′-biphenyl]-4-yl)ethoxy)pyrimidin-4-yl)-2,8-diazaspiro[4.5]decane-3-carboxylic acid], 50 to 300 nM; to `Nc1nc(O[C@H](c2ccc(-c3cccnc3)cc2)C(F)(F)F)cc(N2CCC3(CC2)CN[C@H](C(=O)O)C3)n1` [Example 55aw, (S)-8-(2-amino-6-((R)-2,2,2-trifluoro-1-(4-(pyridin-3-yl)phenyl)ethoxy)pyrimidin-4-yl)-2,8-diazaspiro[4.5]decane-3-carboxylic acid], 300 to 3000 nM. Still for that read-out and setting: the same measure for `Nc1nc(O[C@H](c2ccc(-c3ccncc3)cc2)C(F)(F)F)cc(N2CCC3(CC2)CN[C@H](C(=O)O)C3)n1` [Example 55ax, (S)-8-(2-amino-6-((R)-2,2,2-trifluoro-1-(4-(pyridin-4-yl)phenyl)ethoxy)pyrimidin-4-yl)-2,8-diazaspiro[4.5]decane-3-carboxylic acid]: 50 to 300 nM; for `Nc1nc(O[C@H](c2ccc(-c3cncnc3)cc2)C(F)(F)F)cc(N2CCC3(CC2)CN[C@H](C(=O)O)C3)n1` [Example 55ay, (S)-8-(2-amino-6-((R)-2,2,2-trifluoro-1-(4-(pyrimidin-5-yl)phenyl)ethoxy)pyrimidin-4-yl)-2,8-diazaspiro[4.5]decane-3-carboxylic acid]: 300 to 3000 nM; for `Cc1c2ccc(-c3ccc([C@@H](Oc4cc(N5CCC6(CC5)CN[C@H](C(=O)O)C6)nc(N)n4)C(F)(F)F)cc3)cc2nn1C` [Example 55bb]: less than 50 nM. Same read-out and setting: the same measure for `Nc1nc(O[C@H](c2ccc(-c3ccc4ccncc4c3)cc2)C(F)(F)F)cc(N2CCC3(CC2)CN[C@H](C(=O)O)C3)n1` [Example 55be, (S)-8-(2-amino-6-((R)-2,2,2-trifluoro-1-(4-(isoquinolin-7-yl)phenyl)ethoxy)pyrimidin-4-yl)-2,8-diazaspiro[4.5]decane-3-carboxylic acid]: less than 50 nM; for `CN(C)Cc1ccc(-c2ccc([C@@H](Oc3cc(N4CCC5(CC4)CN[C@H](C(=O)O)C5)nc(N)n3)C(F)(F)F)cc2)cc1` [Example 55bf, (S)-8-(2-amino-6-((R)-1-(4′-((dimethylamino)methyl)-[1,1′-biphenyl]-4-yl)-2,2,2-trifluoroethoxy)pyrimidin-4-yl)-2,8-diazaspiro[4.5]decane-3-carboxylic acid]: 50 to 300 nM; for `Nc1nc(O[C@H](c2ccc(-c3ccc4cccnc4c3)cc2)C(F)(F)F)cc(N2CCC3(CC2)CN[C@H](C(=O)O)C3)n1` [Example 55bh, (S)-8-(2-amino-6-((R)-2,2,2-trifluoro-1-(4-(quinolin-7-yl)phenyl)ethoxy)pyrimidin-4-yl)-2,8-diazaspiro[4.5]decane-3-carboxylic acid]: 50 to 300 nM.

For the compound `Nc1nc(O[C@H](c2ccc(-c3ccc4nccnc4c3)cc2)C(F)(F)F)cc(N2CCC3(CC2)CN[C@H](C(=O)O)C3)n1` [Example 55bi, (S)-8-(2-amino-6-((R)-2,2,2-trifluoro-1-(4-(quinoxalin-6-yl)phenyl)ethoxy)pyrimidin-4-yl)-2,8-diazaspiro[4.5]decane-3-carboxylic acid], the IC50 was less than 50 nM.

Take `Nc1nc(O[C@H](c2ccc(-c3ccc4ncncc4c3)cc2)C(F)(F)F)cc(N2CCC3(CC2)CN[C@H](C(=O)O)C3)n1` [Example 55bk, (S)-8-(2-amino-6-((R)-2,2,2-trifluoro-1-(4-(quinazolin-6-yl)phenyl)ethoxy)pyrimidin-4-yl)-2,8-diazaspiro[4.5]decane-3-carboxylic acid]: the IC50 lay in the range of 50 to 300 nM. The same measure, in the same setting: the same measure for `COc1cc(F)ccc1-c1ccc([C@@H](Oc2cc(N3CCC4(CC3)CN[C@H](C(=O)O)C4)nc(N)n2)C(F)(F)F)cc1` [Example 55bl, (S)-8-(2-amino-6-((R)-2,2,2-trifluoro-1-(4′-fluoro-2′-methoxy-[1,1′-biphenyl]-4-yl)ethoxy)pyrimidin-4-yl)-2,8-diazaspiro[4.5]decane-3-carboxylic acid]: 300 to 3000 nM; for `COc1cccc(-c2ccc([C@@H](Oc3cc(N4CCC5(CC4)CN[C@H](C(=O)O)C5)nc(N)n3)C(F)(F)F)cc2)c1F` [Example 55bm, (S)-8-(2-amino-6-((R)-2,2,2-trifluoro-1-(2′-fluoro-3′-methoxy-[1,1′-biphenyl]-4-yl)ethoxy)pyrimidin-4-yl)-2,8-diazaspiro[4.5]decane-3-carboxylic acid]: 300 to 3000 nM.

Take `COc1ccc(F)c(-c2ccc([C@@H](Oc3cc(N4CCC5(CC4)CN[C@H](C(=O)O)C5)nc(N)n3)C(F)(F)F)cc2)c1` [Example 55bn, (S)-8-(2-amino-6-((R)-2,2,2-trifluoro-1-(2′-fluoro-5′-methoxy-[1,1′-biphenyl]-4-yl)ethoxy)pyrimidin-4-yl)-2,8-diazaspiro[4.5]decane-3-carboxylic acid]: the IC50 lay within 3000 to 10000 nM. The same measure, in the same setting: the same measure for `Cc1ccc(-c2ccc([C@@H](Oc3cc(N4CCC5(CC4)CN[C@H](C(=O)O)C5)nc(N)n3)C(F)(F)F)cc2)cn1` [Example 55bo, (S)-8-(2-amino-6-((R)-2,2,2-trifluoro-1-(4-(6-methylpyridin-3-yl)phenyl)ethoxy)pyrimidin-4-yl)-2,8-diazaspiro[4.5]decane-3-carboxylic acid]: 50 to 300 nM; for `Nc1nc(O[C@H](c2ccc(-c3ccc(C(=O)N4CCCC4)cc3)cc2)C(F)(F)F)cc(N2CCC3(CC2)CN[C@H](C(=O)O)C3)n1` [Example 55bp, (S)-8-(2-amino-6-((R)-2,2,2-trifluoro-1-(4′-(pyrrolidine-1-carbonyl)-[1,1′-biphenyl]-4-yl)ethoxy)pyrimidin-4-yl)-2,8-diazaspiro[4.5]decane-3-carboxylic acid]: 50 to 300 nM; for `Nc1nc(O[C@H](c2ccc(-c3cccc(C(=O)O)c3)cc2)C(F)(F)F)cc(N2CCC3(CC2)CN[C@H](C(=O)O)C3)n1` [Example 55bq, (S)-8-(2-amino-6-((R)-1-(3′-carboxy-[1,1′-biphenyl]-4-yl)-2,2,2-trifluoroethoxy)pyrimidin-4-yl)-2,8-diazaspiro[4.5]decane-3-carboxylic acid]: 300 to 3000 nM. Still for that read-out and setting: the same measure for `Nc1nc(O[C@H](c2ccc(-c3ccc(C(=O)O)cc3)cc2)C(F)(F)F)cc(N2CCC3(CC2)CN[C@H](C(=O)O)C3)n1` [Example 55br, (S)-8-(2-amino-6-((R)-1-(4′-carboxy-[1,1′-biphenyl]-4-yl)-2,2,2-trifluoroethoxy)pyrimidin-4-yl)-2,8-diazaspiro[4.5]decane-3-carboxylic acid]: 300 to 3000 nM.
